Tested on: Runx2
Assay: Runx2 activity, 6xOSE2-Luc luciferase reporter in transfected C2C12 cells
Format: cell-based, Mouse
Details: Mus musculus, 24 hrs, read-out: luciferase activity relative to control set as 1
Experimental: Mouse premyoblast cell (C2C12 cell) was transfected using receptor vector 6xOSE2-Luc in order to investigate the activity of the amide compound of the present invention on Runx2.
Specifically, the receptor vector 6xOSE2-Luc was prepared by inserting an artificial promoter linked by six tandem copies of the OSE2 (osteoblast specific element-2) into vector pGL3 (Promega; Madison, Wis., U.S.A.), and then, cloned into the C2C12 cell to be transfected (Kim et al., Journal of Cellular Biochemistry, 91: 1239-1247, 2004). The OSE2 is the binding site of Runx2 in the promoter of osteocalcin which is a bone marker.
C2C12 cells (5,000 cells/well) were plated onto 96-well plates using 10% FBS (fetal bovine serum; Hyclone)-containing DMEM (Dulbecco's Modified Eagle's Medium), the medium was replaced with 5% FBS-containing DMEM after 24 hrs, and treated with each of the amide compounds obtained in Examples 1 to 94 at various concentrations of 2.5 μM, 5.0 μM, 10 μM, and 20 μM. As a control, dimethyl sulfoxide (DMSO) vehicle was applied to the cell in an amount same as that of the amide compound. After 24 hrs, the luciferase activity in the cell lysate was measured by using Dual-Luciferase Reporter Assay System (Promega). The luciferase activity of the amide compound of the present invention was calculated as a value relative to that observed for the control which was set as 1.

Row | Structure (SMILES) | fold induction at 2.5 µM | fold induction at 5 µM | fold induction at 10 µM | fold induction at 20 µM
1 | NC(=O)c1cccc(-c2cccc3c2CN(Cc2ccc(C(=O)Nc4ccccc4N)cc2)C3=O)c1 [Example 26, 3-[2-(4-[(2-aminophenyl)carbamoyl]phenylmethyl)-1-oxo-2,3-dihydro-1H-isoindol-4-yl]benzamide] | 1.6 | 2.3 | 4.4 | 18.4
2 | Cc1ccc(-c2cccc3c2CN(Cc2ccc(C(=O)Nc4ccccc4N)cc2)C3=O)cc1F [Example 27, N-(2-aminophenyl)-4-((4-(3-fluoro-4-methylphenyl)-1-oxoisoindolin-2-yl)methyl)benzamide] | 9.9 | 17.5 | 22.5 | 20.3
3 | CC(C)(C)c1ccc(-c2cccc3c2CN(Cc2ccc(C(=O)Nc4ccccc4N)cc2)C3=O)cc1 [Example 28, 4-((4-(4-tert-butylphenyl)-1-oxoisoindolin-2-yl)methyl)-N-(2-aminophenyl)benzamide] | 4.6 | 7.7 | 14.3 | 23.7
4 | Nc1ccccc1NC(=O)c1ccc(CN2Cc3c(cccc3-c3ccc(Oc4ccccc4)cc3)C2=O)cc1 [Example 29, N-(2-aminophenyl)-4-((1-oxo-4-(4-phenoxyphenyl)isoindolin-2-yl)methyl)benzamide] | 3.4 | 5.6 | 10.5 | 10
5 | Nc1ccccc1NC(=O)c1ccc(CN2Cc3c(cccc3-c3ccc(F)cc3)C2=O)cc1 [Example 30, N-(2-aminophenyl)-4-((4-(4-fluorophenyl)-1-oxoisoindolin-2-yl)methyl)benzamide] | 13.5 | 20.5 | 28.8 | 30.4
6 | COc1cc2c(c(-c3ccccc3)c1OC)CN(CCCCCC(=O)Nc1ccccc1N)C2=O [Example 31, N-(2-aminophenyl)-6-(5,6-dimethoxy-1-oxo-4-phenylisoindolin-2-yl)hexanamide] | 12.2 | 21.2 | 26.2 | 29.3
7 | COc1cc2c(c(-c3cc(C)cc(C)c3)c1OC)CN(CCCCCC(=O)Nc1ccccc1N)C2=O [Example 32, N-(2-aminophenyl)-6-(5,6-dimethoxy-4-(3,5-dimethylphenyl)-1-oxoisoindolin-2-yl)hexanamide] | 4.4 | 9.2 | 18.5 | 23.8
8 | COc1cc2c(c(-c3cccnc3)c1OC)CN(CCCCCC(=O)Nc1ccccc1N)C2=O [Example 33, N-(2-aminophenyl)-6-(5,6-dimethoxy-1-oxo-4-(pyridin-3-yl)isoindolin-2-yl)hexanamide] | 1.8 | 3.4 | 10 | 29
9 | COc1cc2c(c(-c3cc(F)cc(F)c3)c1OC)CN(CCCCCC(=O)Nc1ccccc1N)C2=O [Example 34, N-(2-aminophenyl)-6-(4-(3,5-difluorophenyl)-5,6-dimethoxy-1-oxoisoindolin-2-yl)hexanamide] | 3.7 | 7.4 | 18 | 23
10 | COc1cc2c(c(-c3ccc(C(F)(F)F)cc3)c1OC)CN(CCCCCC(=O)Nc1ccccc1N)C2=O [Example 35, N-(2-aminophenyl)-6-(4-(4-(trifluoromethyl)phenyl)-5,6-dimethoxy-1-oxoisoindolin-2-yl)hexanamide] | 2.9 | 6.7 | 14.2 | 22.3
11 | Nc1ccccc1NC(=O)CCCCCN1Cc2c(Br)cccc2C1=O [Example 36, N-(2-aminophenyl)-6-(4-bromo-1-oxoisoindolin-2-yl)hexanamide] | 2.1 | 3 | 8 | 13
12 | Nc1ccccc1NC(=O)CCCCCN1Cc2c(cccc2-c2ccccc2)C1=O [Example 37, N-(2-aminophenyl)-6-(1-oxo-4-phenylisoindolin-2-yl)hexanamide] | 1.6 | 2.6 | 6.8 | 12.5
13 | Nc1ccccc1NC(=O)CCCCCN1Cc2c(cccc2-c2cccnc2)C1=O [Example 38, N-(2-aminophenyl)-6-(1-oxo-4-(pyridin-3-yl)isoindolin-2-yl)hexanamide] | 3 | 8.2 | 23 | 43.3
14 | COc1ccc(-c2cccc3c2CN(CCCCCC(=O)NO)C3=O)c(OC)c1 [Example 39, N-hydroxy-6-(4-(2,4-dimethoxyphenyl)-1-oxoisoindolin-2-yl)hexanamide] | 1.4 | 2.1 | 5.3 | 25.6
15 | COc1ccc(-c2cccc3c2CN(CCCCCC(=O)NO)C3=O)cc1OC [Example 40, N-hydroxy-6-(4-(3,4-dimethoxyphenyl)-1-oxoisoindolin-2-yl)hexanamide] | 1.1 | 1.1 | 1.7 | 1.6
16 | Cc1cc(C)cc(-c2cccc3c2CN(CCCCCC(=O)NO)C3=O)c1 [Example 41, N-hydroxy-6-(4-(3,5-dimethylphenyl)-1-oxoisoindolin-2-yl)hexanamide] | 2.5 | 4.6 | 12.4 | 28
17 | O=C(CCCCCN1Cc2c(cccc2-c2cc(F)cc(F)c2)C1=O)NO [Example 42, 6-(4-(3,5-difluorophenyl)-1-oxoisoindolin-2-yl)-N-hydroxyhexanamide] | 3.1 | 10.8 | 22.3 | 17.9
18 | O=C(CCCCCN1Cc2c(cccc2-c2cccnc2)C1=O)NO [Example 43, N-hydroxy-6-(1-oxo-4-(pyridin-3-yl)isoindolin-2-yl)hexanamide] | 1.1 | 1.3 | 1.8 | 3.2
19 | O=C(CCCCCN1Cc2c(cccc2-c2ccc(C(F)(F)F)cc2)C1=O)NO [Example 44, 6-(4-(4-(trifluoromethyl)phenyl)-1-oxoisoindolin-2-yl)-N-hydroxyhexanamide] | 1.2 | 1.2 | 1.3 | 1.4
20 | Nc1ccc(-c2cccs2)cc1NC(=O)CCCCCN1Cc2c(cccc2-c2cncnc2)C1=O [Example 47, N-(2-amino-5-(thiophen-2-yl)phenyl)-6-(1-oxo-4-(pyrimidin-5-yl)isoindolin-2-yl)hexanamide] | 1.1 | 1.2 | 1.3 | 1.6
21 | COc1cc2c(c(-c3cccnc3)c1OC)CN(Cc1ccc(C(=O)Nc3cc(-c4cccs4)ccc3N)cc1)C2=O [Example 48, N-(2-amino-5-(thiophen-2-yl)phenyl)-4-((5,6-dimethoxy-1-oxo-4-(pyridin-3-yl)isoindolin-2-yl)methyl)benzamide] | 3.7 | 7.2 | 11.4 | 14.3

From patent publication US8716326B2, “Isoindolinone derivatives, preparation method thereof and a pharmaceutical composition comprising same” (Korea Research Institute of Chemical Technology, priority 2009, dated 2014)
